Experimental data published in a melting point compilation (Tetko et al.).

melting point [°C]	SMILES
160	Cc1ccc2ccc3ccc(C)nc3c2n1
-6	C=CCOCC=C
4.5	CO[Si](OC)(OC)OC
241	Cc1nc(/C(C#N)=N/Nc2ccccc2Cl)sc1/N=N/c1ccc(Br)cc1
417 to 418	Oc1c2cccc1Cc1cccc(c1O)Cc1cccc(c1O)Cc1cccc(c1O)Cc1cccc(c1O)Cc1cccc(c1O)C2
101 to 106	O=C(C[N+](=O)[O-])c1ccccc1
101	Cc1ccc2cc(N(C)C)ccc2n1
60 to 62	O=[N+]([O-])c1cccc(-c2noc(CCl)n2)c1
99 to 100	Cc1ccccc1-n1ncc(C=O)c1C
110	CC(C(=O)O)c1ccc(-c2ccccc2)c(F)c1 (configuration not stated)
-30	CC(C)(O)CCCC1=CCC(C=O)CC1 (configuration not stated)
270 to 272	CCOC(=O)C(C#N)=C(N)c1cc2cc(Br)ccc2oc1=O
50 to 51	Fc1cc(Br)cc(Br)c1N=C=S
184	CC(=O)Nc1cccc(N)c1C(=O)O
153	CCOC(=O)c1c(SC)nn(C(=O)c2cccc([N+](=O)[O-])c2)c1N
166 to 168	Cc1nc(S)sc1C
29	CCOC(=O)c1ccccc1N=C=O
187	O=C(/C=C/c1ccc(-c2ccc([N+](=O)[O-])cc2)o1)c1ccco1
-35	NCCNCCNCCN
72	Nc1ccccc1-c1cccnc1
76 to 80	O=[N+]([O-])c1ccc(S(=O)(=O)F)cc1
134	N#CCc1csc2ccc(Cl)cc12

melting point [°C]	SMILES
-10	ClC(Cl)C(Cl)C(Cl)Cl
103	CC(=O)N(C)c1ccccc1
171	Cc1onc2c(-c3ccc(Cl)cc3)nnc(-c3ccccc3)c12
150 to 151	CSc1nc(=O)n2ccccc2n1
76 to 80	Cc1nc(-c2cccc(C=O)c2)cs1
136 to 138	O=[N+]([O-])c1ccc(Oc2c(Cl)cccc2Cl)c(Cl)c1
207	C(#Cc1ccc(/N=C/c2ccccc2)cc1)c1ccc(/N=C/c2ccccc2)cc1
87	O=C(O)C1(c2ccccc2)CC1
29	COC(=O)c1cccc(C)c1O
162	CN(C)c1ccc(C=C2C(=O)OC(C)(C)OC2=O)cc1
257	Cc1ccc(C(O)C2C(=O)N(c3ccccc3)N=C2C(F)(F)F)cc1 (configuration not stated)
92 to 93	O=Cc1ccc(OCc2ccc(Cl)c(Cl)c2)cc1
169 to 171	CSc1scnc1S(=O)(=O)c1ccc(C)cc1
59.5	CCOC(=O)c1ccccc1C(=O)c1ccccc1
37.8	Cc1ccc(I)cc1
-29	CC1CCCCC1(C)C (configuration not stated)
210	O=C(O)CC(O)(c1ccccc1)c1ccccc1
-100	CCC(C)OC (configuration not stated)
288	Cc1c(Br)c(Br)c(Br)c(Br)c1Br
55 to 59	CC(=O)c1c(-c2ccc(Cl)cc2Cl)noc1C
227 to 230	CSc1sc(C(=O)O)c(Cl)c1S(=O)(=O)C(C)C
72 to 75	Cc1oc(-c2ccccc2)nc1CCO

melting point [°C]	SMILES
153	O=C(CCl)c1ccc(C(=O)CCl)cc1
112	N#CCS(=O)(=O)c1ccccc1
29 to 33	O=C(OCc1ccccc1)OCc1ccccc1
77	Nc1ccc(SSc2ccc(N)cc2)cc1
133	N#C/C(=N/Nc1cc(Cl)ccc1Cl)c1nc(-c2ccccc2)cs1
-34.8	CCCCCCCC(=O)OCCCCC
118 to 120	N#CCCn1c(=O)oc2ccccc21
191	O=[N+]([O-])c1cc([N+](=O)[O-])c(C(Cl)=Cc2ccccc2)cc1/C=C\c1ccccc1
253 to 255	O=C1Nc2ccccc2C=NC2CCCCC2N=Cc2ccccc2NC(=O)O1 (configuration not stated)
32	Cc1ccc(F)c(O)c1
79	O=C(O)C1(C2=CCCCC2)CCCCC1
202 to 203	NC(=O)Cc1nc(-c2ccc([N+](=O)[O-])cc2)cs1
235	Nc1ncc(Cl)cn1
107	Nc1ccc(C(F)(F)F)cc1[N+](=O)[O-]
98 to 100	CC(=O)CCn1cc([N+](=O)[O-])nc1C
161	CCCSc1ncccc1C(=O)O
28 to 30	NC1CCCCCCCCCCC1
45 to 47	O=C(O)CCCc1ccc(F)cc1
146	O=C(c1ccccc1)c1ccccc1C(=O)c1ccccc1
70	Oc1cccc2c1CCCC2
158	NC(=O)/C(=N\Nc1ccc(F)cc1)c1nc2ccccc2s1
179	N#C/C(=N\Nc1c(Br)cc(Br)cc1Br)c1nc2ccccc2s1

melting point [°C]	SMILES
160	Cn1c(Br)nc(C(=O)O)c1C(=O)O
22	Cc1ccc(CO)c(C)c1
5.5	CCOc1cccc2ccccc12
90 to 92	O=Cc1ccc2nsnc2c1
201 to 202	COC1(OC)CC=CCC(OC)(OC)CC=CC1
227 to 231	O=C(O)c1cscc1C(=O)O
1	FC(F)(F)c1cccc(Br)c1
18 to 20	OC(C(F)(F)F)(C(F)(F)F)C(O)(C(F)(F)F)C(F)(F)F
77	CCOC(=O)C(C(=O)OCC)C(C(=O)OCC)C(=O)OCC
51	Cc1ccc(Oc2ccc(C)cc2)cc1
89	COc1ccccc1-c1ccc(/C=C2/C=C(CC(C)C)OC2=O)o1
4	Cc1ccc(C(=O)C(F)(F)C(F)(F)F)cc1
47	CCOC(=O)N1CCN(C(=O)OCC)CC1
118	O=S(=O)(Cl)c1ccc(N2CCOCC2)nc1
36	Oc1cccc(F)c1F
24	CCCCCCCCCCCCCCCC(=O)OCC
203 to 207	COc1ccc(C2Sc3ccccc3NC(=O)C2O)cc1 (configuration not stated)
106	Cc1cc(O)cc(C)c1C
181	CC(=O)OCC(=O)C12OC(C)(C)OC1CC1C3CC(C=O)=C4C=C(OCCCl)CCC4(C)C3(F)C(O)CC12C (configuration not stated)
83	Cc1ccc(NC(=O)C(F)(F)C(F)(F)C(F)(F)C(F)(F)C(F)(F)C(F)(F)C(F)(F)C(F)(F)F)c(C)c1
162	Oc1ccccc1CNCc1ccccc1O
193 to 195	Cc1ccccc1NC(=O)C(C(F)(F)F)C(F)(F)F

melting point [°C]	SMILES
263 to 265	COC(=O)c1cc2c(=O)oc3ccccc3c2nc1N
29	COC(=O)Oc1c(F)c(F)c(F)c(F)c1F
112	CCOC(=O)C(Cl)=Cc1cc(N2C(=O)C3=C(CCCC3)C2=O)ccc1Cl
76.2	O=C1N[C@H]2CC[C@@H]1C2
92	OC(c1ccc(Cl)cc1)c1ccc(Cl)cc1
-59.3	CC(CBr)c1ccccc1 (configuration not stated)
-48	CCCCCCCc1ccccc1
88 to 91	CSC(SC)=C(C#N)C(=O)c1cccc(Cl)c1
210 to 211	Oc1cc(-c2ccccc2)c2cc(Br)cc(Br)c2n1
223 to 225	Fc1ccc(C=Nc2n[nH]c(N=Cc3ccc(F)cc3)c2Cc2ccc(Cl)cc2)cc1
58 to 60	Cc1ccc(CCl)c2ccccc12
160	O=C(O)CCc1nc(-c2ccccc2)c(-c2ccccc2)o1
45 to 47	O=C(C1CCNCC1)N1CCCC1
-119	FC(F)(F)C(F)(F)C(F)(F)C(F)(C(F)(F)F)C(F)(F)F
52 to 54	C(=NCCN=Cc1ccccc1)c1ccccc1
73	Cc1ccc(Cl)cc1O
156	Cc1ccncc1C=NNc1ccc([N+](=O)[O-])cc1[N+](=O)[O-]
57 to 59	O=Cc1ccc(-c2ccccc2)nc1
190	Cc1nn(C)c2ncnc(N)c12
169 to 171	c1cc(NNc2cccc(-n3cccn3)c2)cc(-n2cccn2)c1
85	CC(=NO)C(C)(C)O

SMILES	melting point [°C]
Nc1ccc(Cl)cc1O	152 to 157
Fc1ccc(C2(Cn3cncn3)OC2c2ccccc2Cl)cc1 (configuration not stated)	137
COP(=O)(OC)C(O)C(Cl)(Cl)Cl (configuration not stated)	80
CN(C)S(=O)(=O)Cl	-13
Fc1ccc(Oc2ccnc3cc(Cl)cc(Cl)c23)cc1	107
CCC(=O)C(CC(C)N1CCOCC1)(c1ccccc1)c1ccccc1 (configuration not stated)	75
Cc1cc(Cl)c(Cl)cc1Cl	82.4
C[C@]12CCC(=O)C=C1C(=O)C[C@@H]1[C@@H]2CC[C@]2(C)C(=O)CC[C@@H]12	222
Cc1cccc2cccc(C)c12	65
BrC(Br)C(Br)(Br)Br	56.5
O=C1c2ccccc2C1Cl (configuration not stated)	67
CCCCCCCCCCCCCCC(Br)C(=O)O (configuration not stated)	52 to 56
O=c1cccc2n1CC1CNCC2C1 (configuration not stated)	152
O=C(Cc1ccccc1)OC(=O)Cc1ccccc1	73.3
Cc1cccc(C)c1NC1=NCCCS1	140
C=CCOC1=NS(=O)(=O)c2ccccc21	138
OC(Cn1cncn1)(c1ccc(F)cc1)c1ccccc1F (configuration not stated)	130
Cc1cccc(N)c1N	63.5
FC=C(F)F	-78
Brc1ccc(Oc2cc(Br)ccc2Br)c(Br)c1	< 20
CCc1cccc(CC)c1N	3.5
C=CCC1(O)CCC2C3CCC4=CC(=O)CCC4=C3C=CC21C (configuration not stated)	120
CC1=CC(=O)C=CC1=O	69
